Results reported in patent publication US8440849B2, “Use of nitroaniline derivatives for the production of nitric oxide” (STMicroelectronics S.r.l., priority 2006, dated 2013).

Assay: NO photo-release, fluorimetric DAN (2,3-diaminonaphthalene) assay measuring nitrite levels
Settings: for NO release after irradiation (presence of nitrites, fluorescent spectrum): 350 nm, 8 lamps
Source text: It allows the indirect determination of NO by measuring nitrite levels. In particular, NO is an highly reactive gas that, in the presence of water, forms an equimolar mixture of nitrites and nitrates. Nitrites, reacting with a DAN (2,3-diaminonaphtalene) solution in the presence of an acid, form 1-naphthotriazole, a highly fluorescent compound having a characteristic UV absorbance.
Therefore, the solution of 4-nitro-3-(trifluoromethyl)aniline in methanol after irradiation was dried and then the recovered 4-nitro-3-(trifluoromethyl)aniline was re-dissolved with water and phosphate buffer 0.1 M (pH 7.4). 150 μl of a DAN solution were added to the solution of 4-nitro-3-(trifluoromethyl)aniline heating at 50° C. for 40 minutes. Subsequently, 150 μl of concentrated NaOH was added in order to obtain naphthotriazole ions according to the scheme below.
300 μl of a DAN saturated solution in HCl 0.6 M were added to 3 ml of the irradiated solution of 10-(3-(trifluoromethyl)-4-Nitrophenylamino)decan-1-thiol followed by heating at 50° C. for 20 minutes.
Subsequently, 1 ml of NaOH was added to 1 ml of the solution in order to obtain naphthotriazole ions.
The NO photo-release of the nanoparticles functionalized with 1043-(trifluoromethyl)-4-Nitrophenylamino)decan-1-thiol was measured using fluorimetric assay based on 2,3-diaminonaphthalene (DAN) [T. P. Misko, R. J. Schilling, D. Salvemini, W. M. Moore, M. G. Currie, Anal. […]], as shown in Examples 1 and 2 (FIG. 8).

SMILES | NO release after irradiation (presence of nitrites, fluorescent spectrum) (methanol solution, 2 hours, DAN, phosphate buffer pH 7.4, FIG. 4) | NO release after irradiation (presence of nitrites, fluorescent spectrum) (CH3OH:H2O (10%) solution, 35 minutes, DAN in HCl 0.6 M, FIG. 6) | NO photo-release profile (trend of the curve) (fluorimetric DAN assay, FIG. 8)
Nc1ccc([N+](=O)[O-])c(C(F)(F)F)c1 [4-nitro-3-(trifluoromethyl)aniline] | formation of NO |  | 
O=[N+]([O-])c1ccc(NCCCCCCCCCCS)cc1C(F)(F)F [10-(3-(trifluoromethyl)-4-Nitrophenylamino)decan-1-thiol] |  | formation of NO | linear behavior
